Source: patent US10604509B2, “Nrf2 regulators” (GlaxoSmithKline Intellectual Property Development Limited, priority 2015, dated 2020)
Structures can show the parent of a compound that is named as a salt. Where two headings read alike, the source gives them in different places.

System: NQO1 specific enzyme activity in BEAS-2B cells
Assay: BEAS-2B NQO1 MTT assay
Format: cell-based
Conditions: BEAS-2B cells, 48 hours with compound, MTT readout, read-out: EC50 of NQO1 specific activity induction
From the text: NAD(P)H:quinone oxidoreductase 1 (NQO1), also called DT diaphorase, is a homodimeric FAD-containing enzyme that catalyzes obligatory NAD(P)H-dependent two-electron reductions of quinones and protects cells against the toxic and neoplastic effects of free radicals and reactive oxygen species arising from one-electron reductions. The transcription of NQO1 is finely regulated by NRF2, and thus NQO1 activity is a good marker for NRF2 activation. On day one, frozen BEAS-2B cells (ATCC) are thawed in a water bath, counted, and re-suspended at a concentration of 250,000 cells/mL. Fifty microliters of cells are plated in 384 well black clear-bottomed plates. Plates are incubated at 37° C., 5% CO2 overnight. On day two, plates are centrifuged and 50 nL of compound or controls are added to the cells. Plates are then incubated at 37° C., 5% CO2 for 48 hours. On day four, medium is aspirated from the plate and crude cell lysates are made by adding 13 uL of 1× Cell Signaling Technologies lysis buffer with 1 Complete, Mini, EDTA-free Protease Inhibitor Tablet (Roche) for each 10 mL of lysis buffer. After lysis plates are incubated for 20 minutes at room temperature. Two microliters of lysate are removed for use in Cell Titer Glo assay (Promega) and MTT cocktail is prepared (Prochaska et. al. 1998) for measurement of NQO1 activity. Fifty microliters of MTT cocktail is added to each well, plate is centrifuged, and analyzed on an Envision plate reader (Perkin Elmer) using Absorbance 570 nm label for 30 minutes. Product formation is measured kinetically and the EC50 of NQO1 specific activity induction is calculated by plotting the change in absorbance (Delta OD/min) versus the log of compound concentration followed by 3-parameter fitting.

`CCC1CN(Cc2cc(C(c3ccc4c(nnn4C)c3C)C(C)(C)C(=O)O)ccc2C)CCC(C2CC2)O1` (stereo not drawn) [Example 246, 3-(3-((7-Cyclopropyl-2-ethyl-1,4-oxazepan-4-yl)methyl)-4-methylphenyl)-3-(1,4-dimethyl-1H-benzo[d][1,2,3]triazol-5-yl)-2,2-dimethylpropanoic Acid] gave an EC50 (Homo sapiens, BEAS-2B, 48 h) of 100 to 1000 nM.
`Cc1ccc(C(CC(=O)O)c2ccc3c(nnn3C)c2C)cc1Cn1ccnc1CN1CCCC1` (stereo not drawn) [Example 153, 3-(1,4-Dimethyl-1H-benzo[d][1,2,3]triazol-5-yl)-3-(4-methyl-3-((2-(pyrrolidin-1-ylmethyl)-1H-imidazol-1-yl)methyl)phenyl)propanoic Acid, Formic Acid Salt] was tested, and the EC50 (Homo sapiens, BEAS-2B, 48 h) was 1000 to 10000 nM.
Work on `Cc1ccc(C(CC(=O)O)c2ccc3c(nnn3C)c2C)cc1CN1CCCC(S(=O)(=O)c2ccccc2)C1` (stereo not drawn) [Example 185, 3-(1,4-Dimethyl-1H-benzo[d][1,2,3]triazol-5-yl)-3-(4-methyl-3-((3-(phenylsulfonyl)piperidin-1-yl)methyl)phenyl)propanoic Acid] yielded an EC50 (Homo sapiens, BEAS-2B, 48 h) of 10 to 100 nM.
`Cc1ccc(C(c2ccc3c(nnn3C)c2C)C(C)(C)C(=O)O)cc1Cn1ccnc1CN1CCCCC1` (stereo not drawn) [Example 123, 3-(1,4-Dimethyl-1H-benzo[d][1,2,3]triazol-5-yl)-2,2-dimethyl-3-(4-methyl-3-((2-(piperidin-1-ylmethyl)-1H-imidazol-1-yl)methyl)phenyl)propanoate, Sodium salt] gave an EC50 (Homo sapiens, BEAS-2B, 48 h) of 10 to 100 nM.
`CCn1nnc2c(F)c([C@H](CC(=O)O)c3ccc(C)c(CN4Cc5ccccc5OC(C)(C)C4)c3)ccc21` [Example 65, (R)-3-(3-((2,2-Dimethyl-2,3-dihydrobenzo[f][1,4]oxazepin-4(5H)-yl)methyl)-4-methylphenyl)-3-(1-ethyl-4-fluoro-1H-benzo[d][1,2,3]triazol-5-yl)propanoic Acid, Hydrochloride] gave an EC50 (Homo sapiens, BEAS-2B, 48 h) of 10 to 100 nM.
`CCN1CCN(Cc2cc(C(c3ccc4c(nnn4C)c3C)C(C)(C)C(=O)O)ccc2C)Cc2ccccc21` (stereo not drawn) [Example 111, 3-(1,4-dimethyl-1H-benzo[d][1,2,3]triazol-5-yl)-3-(3-((1-ethyl-2,3-dihydro-1H-benzo[e][1,4]diazepin-4(5H)-yl)methyl)-4-methylphenyl)-2,2-dimethylpropanoic Acid, Formic Acid Salt] showed an EC50 (Homo sapiens, BEAS-2B, 48 h) of 10 to 100 nM.
Molecule `Cc1ccc(C(CC(=O)O)c2ccc3c(nnn3C)c2C)cc1CN1Cc2ccccc2OC(C)(C)C1` (stereo not drawn) [Example 89, 3-(1,4-Diemthyl-1H-benzo[d][1,2,3]triazol-5-yl)-3-(3-((2,2-dimethyl-2,3-dihydrobenzo[f][1,4]oxazepin-4(5H)-yl)methyl)-4-methylphenyl)propanoic acid] has an EC50 (Homo sapiens, BEAS-2B, 48 h) of 10 to 100 nM.
Work on `CCn1nnc2c(C)c([C@H](c3ccc(C)c(CN4Cc5cnccc5OC(C)(C)C4)c3)[C@@H](C)C(=O)O)cc(Cl)c21` [Example 209, (2R,3S)-3-(7-Chloro-1-ethyl-4-methyl-1H-benzo[d][1,2,3]triazol-5-yl)-3-(3-((2,2-dimethyl-2,3-dihydropyrido[3,4-f][1,4]oxazepin-4(5H)-yl)methyl)-4-methylphenyl)-2-methylpropanoic Acid] yielded an EC50 (Homo sapiens, BEAS-2B, 48 h) of 1 to 10 nM.
Work on `CCCn1cc(CCC(c2ccc(C)c(Cn3ccnc3CN3CCC(CC)CC3)c2)C(C)(C)C(=O)O)nn1` (single isomer, unassigned) [Example 247, 3-(3-((2-((4-Ethylpiperidin-1-yl)methyl)-1H-imidazol-1-yl)methyl)-4-methylphenyl)-2,2-dimethyl-5-(1-propyl-1H-1,2,3-triazol-4-yl)pentanoic Acid] yielded an EC50 of 1 to 10 nM.
In the case of `Cc1ccc(C(CC(=O)O)c2ccc3c(nnn3C)c2C)cc1Cc1cnnn1CC1CCCCC1` (stereo not drawn) [Example 128, 3-(3-((1-(Cyclohexylmethyl)-1H-1,2,3-triazol-5-yl)methyl)-4-methylphenyl)-3-(1,4-dimethyl-1H-benzo[d][1,2,3]triazol-5-yl)propanoic acid], the EC50 (Homo sapiens, BEAS-2B, 48 h) is reported as 1000 to 10000 nM.
For `Cc1ccc([C@H](c2ccc3c(nnn3C)c2C)C(C)(C)C(=O)O)cc1Cn1ccnc1CC1CCCCCC1` [Example 125, (R)-3-(3-((2-(Cycloheptylmethyl)-1H-imidazol-1-yl)methyl)-4-methylphenyl)-3-(1,4-dimethyl-1H-benzo[d][1,2,3]triazol-5-yl)-2,2-dimethylpropanoate, Sodium salt], the EC50 (Homo sapiens, BEAS-2B, 48 h) was 100 to 1000 nM.
In the case of `Cc1ccc(C2(C)CN(Cc3cc(C(CC(=O)O)c4ccc5c(nnn5C)c4C)ccc3C)CCO2)cc1` (stereo not drawn) [Example 18, 3-(1,4-Dimethyl-1H-benzo[d][1,2,3]triazol-5-yl)-3-(4-methyl-3-((2-methyl-2-(p-tolyl)morpholino)methyl)phenyl)propanoic Acid, Formic Acid Salt], the EC50 (Homo sapiens, BEAS-2B, 48 h) is reported as 1000 to 10000 nM.
In the case of `CCCn1cc(CCC(CC(=O)O)c2ccc(C)c(CN3CCCC(n4cccn4)C3)c2)nn1` (stereo not drawn) [Example 163, 3-(3-((3-(1H-pyrazol-1-yl)piperidin-1-yl)methyl)-4-methylphenyl)-5-(1-propyl-1H-1,2,3-triazol-4-yl)pentanoic Acid, Formic Acid Salt], the EC50 (Homo sapiens, BEAS-2B, 48 h) is reported as 1000 to 10000 nM.
With `Cc1ccc(C(c2ccc3c(nnn3C)c2C)C(C)(C)C(=O)O)cc1CN1CCOc2ccccc2C1` (stereo not drawn) [Example 44, 3-(3-((2,3-Dihydrobenzo[f][1,4]oxazepin-4(5H)-yl)methyl)-4-methylphenyl)-3-(1,4-dimethyl-1H-benzo[d][1,2,3]triazol-5-yl)-2,2-dimethylpropanoic Acid, Formic Acid Salt] the EC50 (Homo sapiens, BEAS-2B, 48 h) was 10 to 100 nM.
For `CCn1cc(CCC(c2ccc(C)c(CN3Cc4cnccc4OC(C)(C)C3)c2)C(C)C(=O)O)nn1` (single isomer, unassigned) [Example 228, 3-(3-((2,2-Dimethyl-2,3-dihydropyrido[3,4-f][1,4]oxazepin-4(5H)-yl)methyl)-4-methylphenyl)-5-(1-ethyl-1H-1,2,3-triazol-4-yl)-2-methylpentanoic acid], the EC50 was 100 to 1000 nM.
In the case of `CC[C@@H]1CN(Cc2cc(C(CC(=O)O)c3cc(OC)c4c(nnn4C)c3C)ccc2C)Cc2ccccc2O1` (stereo partly drawn) [Example 45, 3-(3-(((R)-2-Ethyl-2,3-dihydrobenzo[f][1,4]oxazepin-4(5H)-yl)methyl)-4-methylphenyl)-3-(7-methoxy-1,4-dimethyl-1H-benzo[d][1,2,3]triazol-5-yl)propanoic Acid, Formic Acid Salt], the EC50 (Homo sapiens, BEAS-2B, 48 h) is reported as 100 to 1000 nM.
For `CCC1CN(Cc2cc(C(CC(=O)O)c3ccc4c(nnn4C)c3C)ccc2C)Cc2ccc(Br)cc2O1` (stereo not drawn) [Example 82, 3-(3-((8-Bromo-2-ethyl-2,3-dihydrobenzo[f][1,4]oxazepin-4(5H)-yl)methyl)-4-methylphenyl)-3-(1,4-dimethyl-1H-benzo[d]-[1,2,3]triazol-5-yl)propanoic acid], the EC50 (Homo sapiens, BEAS-2B, 48 h) was 10 to 100 nM.
In the case of `Cc1ccc(C(c2ccc3c(nnn3C)c2C)C(C)(C)C(=O)O)cc1Cn1ccnc1CN1CCC(C)CC1` (stereo not drawn) [Example 139, 3-(1,4-Dimethyl-1H-benzo[d][1,2,3]triazol-5-yl)-2,2-dimethyl-3-(4-methyl-3-((2-((4-methylpiperidin-1-yl)methyl)-1H-imidazol-1-yl)methyl)phenyl) propanoic acid], the EC50 (Homo sapiens, BEAS-2B, 48 h) is reported as 1000 to 10000 nM.
Molecule `CCC1CN(Cc2cc(C(CC(=O)O)c3cc(OC)c4c(c3)nnn4C)ccc2C)Cc2ccccc2O1` (stereo not drawn) [compound 46] has an EC50 (Homo sapiens, BEAS-2B, 48 h) of 100 to 1000 nM.
`Cc1ccc([C@@H](c2ccc3c(nnn3C)c2C)C(C)(C)C(=O)O)cc1CN1CCC[C@@H](n2cccn2)C1` [compound 184, (S)-3-(3-(((R)-3-(1H-Pyrazol-1-yl)piperidin-1-yl)methyl)-4-methylphenyl)-3-(1,4-dimethyl-1H-benzo[d][1,2,3]triazol-5-yl)-2,2-dimethylpropanoic acid] was tested, and the EC50 (Homo sapiens, BEAS-2B, 48 h) was 100 to 1000 nM.
Work on `CCc1ncc2c(n1)CN(Cc1cc(C(CC(=O)O)c3ccc4c(nnn4C)c3C)ccc1C)CC2` (stereo not drawn) [Example 13, Ammonium 3-(1,4-dimethyl-1H-benzo[d][1,2,3]triazol-5-yl)-3-(3-((2-ethyl-5,6-dihydropyrido[3,4-d]pyrimidin-7(8H)-yl)methyl)-4-methylphenyl)propanoate] yielded an EC50 (Homo sapiens, BEAS-2B, 48 h) of 1000 to 10000 nM.
`CC[C@@H]1CN(Cc2cc([C@H](CC(=O)O)c3ccc4c(nnn4CC)c3F)ccc2C)Cc2cccc(F)c2O1` [Example 52, (S)-3-(1-Ethyl-4-fluoro-1H-benzo[d][1,2,3]triazol-5-yl)-3-(3-(((R)-2-ethyl-9-fluoro-2,3-dihdyrobenzo[f][1,4]oxazepin-4(5H)-yl)methyl)-4-methylphenyl)propanoic acid, 0.5formic acid salt] showed an EC50 (Homo sapiens, BEAS-2B, 48 h) of 1 to 10 nM.
Molecule `Cc1ccc([C@@H](CC(=O)O)c2ccc3c(nnn3C)c2C)cc1CN1CCCC(n2cccn2)C1` (single isomer, unassigned; isomer 2) [Example 158] has an EC50 of 1000 to 10000 nM.
In the case of `Cc1ccc2c(c1)OC(C)(C)CN(Cc1cc([C@H](CC(=O)O)c3ccc4c(nnn4C)c3C)ccc1C)C2` [Example 180, (S)-3-(1,4-Dimethyl-1H-benzo[d][1,2,3]triazol-5-yl)-3-(4-methyl-3-((2,2,8-trimethyl-2,3-dihydrobenzo[f][1,4]oxazepin-4(5H)-yl)methyl)phenyl) propanoic acid], the EC50 (Homo sapiens, BEAS-2B, 48 h) is reported as 10 to 100 nM.
